Results as given in patent publication US20120201915A1, “THERAPEUTIC COMPOSITION” (priority 2009, published 2012).

Test system: contact dermatitis from poison sumac
Assay: Case-study: contact dermatitis from poison sumac
Assay type: in vivo, human
Details: used by the patient before Composition I
Text: In one case-study, a patient had contact dermatitis from poison sumac which was on the volar surfaces of both arms from the hand to the elbow. […] They continued application of the Composition I, TID (three daily doses), and by four days, their skin had healed.

Compound: C[C@]12CCC(=O)C=C1CC[C@@H]1[C@@H]2C(=O)C[C@@]2(C)[C@H]1CC[C@]2(O)C(=O)CO [cortisone]
- relief from earlier topical treatments: without relief
